The record followed here is PMC9100779, “Simple and Expedient Access to Novel Fluorinated Thiazolo- and Oxazolo[3,2-a]pyrimidin-7-one Derivatives and Their Functionalization via Palladium-Catalyzed Reactions” (Molecules, 2022).

Molecules are shown by their SMILES.

In the assay the target is T1, human monoamine oxidase A (hMAO-A) (Homo sapiens, UniProt P21397).
T1 construct: gene MAOA
T1 sequence (P21397 1-527): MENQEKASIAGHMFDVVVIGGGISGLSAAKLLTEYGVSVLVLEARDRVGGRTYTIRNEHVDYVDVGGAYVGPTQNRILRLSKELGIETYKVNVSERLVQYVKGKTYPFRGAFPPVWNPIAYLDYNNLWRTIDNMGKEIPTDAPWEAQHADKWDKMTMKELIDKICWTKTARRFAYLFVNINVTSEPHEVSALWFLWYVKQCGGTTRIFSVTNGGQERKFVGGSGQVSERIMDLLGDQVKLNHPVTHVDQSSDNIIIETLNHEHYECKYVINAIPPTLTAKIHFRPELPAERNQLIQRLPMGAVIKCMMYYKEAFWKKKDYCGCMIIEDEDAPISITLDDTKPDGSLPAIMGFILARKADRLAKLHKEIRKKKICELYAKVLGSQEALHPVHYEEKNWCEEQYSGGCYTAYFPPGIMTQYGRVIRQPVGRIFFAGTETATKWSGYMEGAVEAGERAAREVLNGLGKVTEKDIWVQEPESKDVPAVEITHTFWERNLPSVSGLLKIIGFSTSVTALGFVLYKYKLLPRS
Kind of assay: in vitro hMAO-A enzyme inhibition assay with p-tyramine as substrate, serial dilution. It counts as biochemical.

On to `O=c1cc(C(F)(F)c2ccc(Br)cc2)n2cc(Br)sc2n1` [3g, 2-Bromo-5-[(4-bromophenyl)difluoromethyl]-7H-thiazolo[3,2-a]pyrimidin-7-one], for which the IC50 was 54.1 µM.

As a reminder, the IC50 is the concentration needed to halve the response being measured. Higher therefore signals weaker potency.
